Assay results reported in US8951982B2, “Methods and compositions for the treatment of eye disorders with increased intraocular pressure” (Sylentis S.A.U., priority 2004, dated 2015).
d = 2'-deoxy (DNA)

Key:
CA2 = experiment: siRNA transfection of cells, real time PCR of target gene expression; assay type: cell-based; details: 100 nM siRNA, mean ± SD, normalized to beta-actin
Experimental: (§1) Cells (either NPE, OMDC, or HEK293 cells) were incubated with various siRNA molecules and assayed for expression of the native mRNA corresponding to the siRNA molecule. One day prior to transfection, 2−4×10^5 cells were seeded into each well of a 6 well plate in 3 ml of growth medium (DMEM, 10% serum, antibiotics and glutamine) and incubated under normal growth conditions (37° C. and 5% CO2). Lipofectamine 2000 Reagent (Invitrogen Corporation, Carlsbad, Calif.) was used to transfect the cells with the siRNA molecules. The protocol supplied by the manufacturer was followed. Briefly, siRNA molecules were added to cells that were 30%-50% confluent to a final concentration of 100 nM. Prior to addition to the cells, the siRNA molecule was diluted in 250 μl DMEM and incubated at room temperature for 5 minutes. The siRNA was then mixed with 6 μl of Lipofectamine 2000 Reagent that also had been diluted in 250 μl DMEM and the mixture was incubated at room temperature for 20 minutes. The siRNA/Lipofectamine mixture was added to the cells drop-wise with 2 ml of fresh growth medium low in antibiotics. After swirling the plates to ensure uniform distribution of the transfection complexes, the cells were incubated under normal growth conditions for 24 hours. After incubation with either of the transfection complexes, the medium was removed and replaced with 3 ml of fresh complete growth medium. mRNA was collected from cells at 24, 48 and 72 hours post-transfection.
(§2) After transfection and incubation with a siRNA molecule, total RNA fractions were extracted from cells using protocols well known in the art. The effect of siRNAs on target gene expression was analyzed by real time PCR and semi-quantitative PCR according to standard protocols. Approximately 250 ng of total RNA was used for reverse transcription followed by PCR amplification with specific primers for the target gene in a reaction mixture containing SYBR Green I Dye (Applied Biosystems, Foster City, Calif.). Basic PCR conditions comprised an initial step of […], followed by 40 cycles of 5 s at 95° C., 10 s at 62° C. and 15 s at 72° C. Quantification of beta-actin mRNA was used as a control for data normalization.
(§3) The values represent the mean of the percentage of siRNA interference of each gene expression once normalized with the control cells and their standard deviations.

[1] = tested on: Normotensive New Zealand White rabbits; experiment: In vivo rabbit model of IOP (contact tonometer); details: figure legends (FIGS. 5-8), 256 μg dose of siRNA per administration
Experimental: Normotensive New Zealand White rabbits (males, 2-3 kg) were used in the in vivo assays. The animals were kept in individual cages with free access to food and water. Animals were submitted to artificial 12 hours light/darkness cycles to avoid uncontrolled circadian oscillations of IOP and all experiments were performed at the same time of day to control for any fluctuations in IOP due to circadian oscillations. Animal handling and treatment were carried out in accordance with the European Communities Council Directive (86/609/EEC) and the statement of the Association for Research in Vision and Ophthalmology on the Use of Animals in Ophthalmic and Vision Research. Each animal was used for only one experiment.
IOP measurements were done using a contact tonometer (TonoPen XL, Mentor, Norwell, Mass.) due to past success of measuring intraocular pressures within the range of 3 to 30 mm Hg in rabbits (Abrams et al., 1996, Invest Ophthalmol Vis Sci. 37:940-4). Measurements were performed by delicately applying the tonometer's sensor to the corneal surface of the animal. All measurements fell within the 3 to 30 mm Hg interval with the mean baseline value of intraocular pressure being 17.0±0.39 mm Hg for untreated animals (n=100). In order to avoid distress to the animal, rabbits were topically anesthetized (10 μl of oxibuprocaine/tetracaine, 0.4%/1%, in a saline solution (1/4 v:v)) prior to IOP measurement.
Commercially available drugs were typically administered to the animals by instilling a small volume (typically 40 μl) on the corneal surface. Contralateral eyes were treated with the vehicle alone and were used as controls in each experiment.
siRNA molecules or commercially available drugs were typically administered to the animals as follows. Doses of siRNA in saline solution (0.9% w/v) to a final volume of 40 μl were applied to the corneal surface of one eye each day during four consecutive days. The opposite eye was taken as a control and 40 μl of sterile saline (0.9% w/v) was instilled on it at the same time points. Commercially available drugs were typically administered to the animals by instilling a small volume (typically 40 μl) on the corneal surface. Contralateral eyes were treated with the vehicle alone and were used as controls in each experiment. The IOP was measured before each application and at 2 h, 4 h and 6 h following the instillation for 10 days.
The data are summarized in Table 2 where values represent the mean of the normalized maximum percentage of IOP reduction after siRNA treatment and their standard deviations. The decrease in IOP was statistically significant for all the treated targets.

PTGS1 = experiment: siRNA transfection of cells, real time PCR of target gene expression; assay type: cell-based; details: 100 nM siRNA, mean ± SD
Experimental: as §1, §2, §3

Row | Substance | % of gene transcript level in control cells (CA2; 24 h post-transfection) [%] | % of gene transcript level in control cells (CA2; 48 h post-transfection) [%] | decrease of IOP over a saline control [1] [%] | % of gene transcript level in control cells (PTGS1; 24 h post-transfection) [%] | % of gene transcript level in control cells (PTGS1; 48 h post-transfection) [%]
1 | SEQ ID NO: 54: siRNA targeting CA2 (CUUCCCUGAGGAUCCUCAA; 3' dTdT, sugars by position and backbone not given here; listed as Homo sapiens) | 37.97 ± 9.78 | 61.45 ± 9.62 | – | – | –
2 | SEQ ID NO: 66: siRNA targeting CA2 (CUUCACUUGGUUCACUGGA; 3' dTdT, sugars by position and backbone not given here; listed as Homo sapiens) | 35.30 ± 9.73 | 51.14 ± 16.49 | – | – | –
3 | SEQ ID NO: 73: siRNA targeting human carbonic anhydrase II (CA2), 2 thymidine 3' overhang (GGUUGGCAGCGCUAAACCG; 3' dTdT, sugars by position and backbone not given here; listed as Homo sapiens) | 76.25 ± 12.60 | 84.57 ± 14.70 | 25 | – | –
4 | SEQ ID NO: 353: siRNA targeting PTGS1 (prostaglandin endoperoxide synthase 1) (CCAUCUCUACCACUGGCAC; 3' dTdT, sugars by position and backbone not given here; listed as Homo sapiens) | – | – | – | 42.25 ± 13.76 | 42.68 ± 17.00
5 | SEQ ID NO: 369: siRNA targeting PTGS1 (CAUUGUCAAGACGGCCACA; 3' dTdT, sugars by position and backbone not given here; listed as Homo sapiens) | – | – | – | 34.98 ± 14.33 | 26.30 ± 10.91
